Values belong to the compound of their own block, whether it stands above or below them.
Columns and labels:
OPM2-P5000 = assay: Cell viability of pomalidomide-resistant OPM2-P5000 cells; type: cell-based, human; settings: CC-92480 3 μM + rapamycin 20 nM, viability at 0, 96, 120 h
Protocol: (§1) • (1) OPM2 cells in the logarithmic growth phase were seeded in a 96-well plate at 3000 cells/well. The volume of the cell suspension is 90 μl/well. • (2) Each well was added with 10 μl lenalidomide (Len), pomalidomide (Pom), CC-122, or CC-220 down the concentration gradients starting from 1 μM. Control groups with no drug treatment were set. Each drug had 7 gradients with 3 replicates. • (3) The plate was placed in a humidity-controlled environment (37° C., 5% CO2) for 5 days. • (4) Subsequently, 50 μl of CTL solution was added to each well under dark conditions. Then, the plate was placed on a shaker and shaken for 10 minutes, followed by reading on a microplate reader. • (5) The average absorbance values of the 3 replicates were used to plot the cell viability curves of OPM2 under drug treatment.
(§2) Cell viability was measured using the CellTiter-Lumi luminescent cell viability assay kit (Beyotime), with luminescence intensity reflecting cell viability, through an ATP-catalyzed luciferase reaction in the cell culture medium.
Meanwhile, this embodiment provides the following groups for cell viability test in the pomalidomide-resistant myeloma cell line OPM2-P5000: rapamycin alone (20 nM), pomalidomide alone (3 μM), CC-92480 alone (3 μM), combination treatment, and control. Cell viability was assessed on Oh, 96 h and 120 h post drug treatment using the same method as in Embodiment 1.

IKZF3 [1] = biological target: T1, IKZF3 (Homo sapiens, UniProt Q96SW2+Q9UKT9); assay: Western blot of IKZF3 in pomalidomide-resistant OPM2-P5000 and OPM2 cells; type: cell-based; settings: pomalidomide-resistant myeloma cell line (OPM2-P5000; FIG. 7b OPM2); rapamycin 20 nM
T1 construct: Cell pellets were collected after 24 h and were lysed using RIPA; The protein levels were analyzed using Western blot; endogenous in cells; host or cells: OPM2, RPMI-8226, U266 myeloma cell lines
Protocol: (§3) The protein levels were analyzed using Western blot.
In this embodiment, the myeloma cell line OPM2, which is sensitive to pomalidomide was subjected to long-term high-dose pomalidomide treatment to obtain the pomalidomide-resistant cell line OPM2-P5000. Pomalidomide and CC-92480 (0.5 nM, 25 nM) were administered to OPM2 cells, and pomalidomide and CC-92480 (0.5 nM, 3 μM) were administered to OPM2-P5000 cells. These treatments were combined with a fixed concentration of rapamycin (20 nM).

[2] = test system: DEPDC5 knockout OPM2 cells; assay: Cell viability (CellTiter-Lumi) of DEPDC5 knockout OPM2 under immunomodulatory drugs; type: cell-based, human; settings: DEPDC5-KO OPM2; drug gradients starting from 1 μM; 5 days
Protocol: as §1, §2

IKZF1 = IKZF1 (Homo sapiens, UniProt Q13422+Q96SW2)
Protocol: 25 nM of pomalidomide and varying concentrations of rapamycin were added to myeloma cell lines OPM2, RPMI-8226, and U266, respectively. Cell pellets were collected after 24 h and were lysed using RIPA. The protein levels were analyzed using Western blot.
Different concentrations of ZNL-02-096 (0, 1, 10, 10^2, 10^3 nM) and a fixed concentration of pomalidomide (25 nM) were added to the myeloma cell line OPM2. After 24 hours, protein levels were detected using the same method as in Embodiment 3.

H929 = assay: Cell viability, pomalidomide combined with rapamycin, H929; type: cell-based, human; settings: H929 (pomalidomide-sensitive); viability at 0, 48, 96, 120 h; P<0.001
Protocol: as §1, with “Each drug had 7 gradients with 3 replicates. • (3) The plate was placed in a humidity-controlled environment (37° C., 5% CO2) for 5 days. • (4) Subsequently, 50 μl of CTL solution was added to each well under dark conditions.” left out
as §2
(§4) In this embodiment, the pomalidomide-sensitive myeloma cell lines (MM1S, H929 and OPM2) and the pomalidomide-resistant myeloma cell lines (U266 and RPMI-8226) were treated with mTOR signaling pathway inhibitor rapamycin alone, pomalidomide alone, a combination of rapamycin and pomalidomide, and control, respectively. Cell viability was assessed on Oh, 48 h, 96 h and 120 h post drug treatment. The detection used on each day is the same and has been described in Embodiment 1.

MM1S = assay: Cell viability, pomalidomide combined with rapamycin, MM1S; type: cell-based, human; settings: MM1S (pomalidomide-sensitive); viability at 0, 48, 96, 120 h; P<0.001
Protocol: as §1, with “Each drug had 7 gradients with 3 replicates. • (3) The plate was placed in a humidity-controlled environment (37° C., 5% CO2) for 5 days. • (4) Subsequently, 50 μl of CTL solution was added to each well under dark conditions.” left out
as §2, §4

IKZF3 [3] = biological target: T1, IKZF3; assay: Western blot of IKZF3 protein level in myeloma cell lines; type: cell-based
RPMI-8226 = assay: Cell viability, pomalidomide combined with rapamycin, RPMI-8226; type: cell-based, human; settings: RPMI-8226 (pomalidomide-resistant); viability at 0, 48, 96, 120 h; P<0.001
Protocol: as §1, with “Each drug had 7 gradients with 3 replicates. • (3) The plate was placed in a humidity-controlled environment (37° C., 5% CO2) for 5 days. • (4) Subsequently, 50 μl of CTL solution was added to each well under dark conditions.” left out
as §2, §4

U266 = assay: Cell viability, pomalidomide combined with rapamycin, U266; type: cell-based, human; settings: U266 (pomalidomide-resistant); viability at 0, 48, 96, 120 h; P<0.001
Protocol: as §1, with “Each drug had 7 gradients with 3 replicates. • (3) The plate was placed in a humidity-controlled environment (37° C., 5% CO2) for 5 days. • (4) Subsequently, 50 μl of CTL solution was added to each well under dark conditions.” left out
as §2, §4

OPM2 = assay: Cell viability, pomalidomide combined with rapamycin, OPM2; type: cell-based, human; settings: OPM2 (pomalidomide-sensitive); viability at 0, 48, 96, 120 h; P<0.001
Protocol: as §1, with “Each drug had 7 gradients with 3 replicates. • (3) The plate was placed in a humidity-controlled environment (37° C., 5% CO2) for 5 days. • (4) Subsequently, 50 μl of CTL solution was added to each well under dark conditions.” left out
as §2, §4

RBM39 = biological target: T2, RBM39 (Homo sapiens, UniProt Q14498); assay: Western blot of RBM39 protein level in OPM2; type: cell-based; settings: indisulam 1 μM + rapamycin 20 nM, 24 hours
T2 construct: endogenous in cells; host or cells: OPM2 myeloma cell line
T2 sequence (Q14498 1-530): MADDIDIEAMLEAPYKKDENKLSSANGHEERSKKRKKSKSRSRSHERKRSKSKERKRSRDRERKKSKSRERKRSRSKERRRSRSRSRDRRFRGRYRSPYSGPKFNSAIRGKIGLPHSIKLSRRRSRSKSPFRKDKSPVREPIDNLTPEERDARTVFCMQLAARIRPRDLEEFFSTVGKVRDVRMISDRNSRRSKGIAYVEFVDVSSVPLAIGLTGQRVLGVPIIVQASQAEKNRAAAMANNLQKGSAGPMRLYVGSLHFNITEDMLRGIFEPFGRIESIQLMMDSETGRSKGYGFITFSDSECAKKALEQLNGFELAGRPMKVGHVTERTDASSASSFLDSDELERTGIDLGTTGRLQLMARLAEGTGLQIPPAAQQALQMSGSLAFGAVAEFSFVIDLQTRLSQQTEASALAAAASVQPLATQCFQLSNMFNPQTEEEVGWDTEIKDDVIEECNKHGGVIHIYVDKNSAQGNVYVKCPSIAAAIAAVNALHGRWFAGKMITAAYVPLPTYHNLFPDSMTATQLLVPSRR
Protocol: as §3
Different concentrations of indisulam (0, 0.1, 1 μm) and a fixed concentration of rapamycin (20 nM) were added to the myeloma cell line OPM2. After 24 hours, protein levels were analyzed using the same method as in Embodiment 3.

Wee1 = biological target: T3, Wee1 (Homo sapiens, UniProt P30291); assay: Western blot of Wee1 protein level in OPM2; type: cell-based; settings: ZNL-02-096 10 nM + rapamycin 20 nM, 24 hours
T3 construct: endogenous in cells; host or cells: OPM2 myeloma cell line
Protocol: as §3
Different concentrations of ZNL-02-096 (0, 1, 10 nM) and a fixed concentration of rapamycin (20 nM) were added to the myeloma cell line OPM2.

BRD4 = biological target: T4, BRD4 (Homo sapiens, UniProt O60885); assay: Western blot of BRD4 protein level in OPM2; type: cell-based; settings: ARV-771 0.5 nM or 1 nM + rapamycin 20 nM, 24 hours
T4 construct: endogenous in cells; host or cells: OPM2 myeloma cell line
Protocol: as §3
Different concentrations of ARV-771 (0, 0.5, 1 nM) and a fixed concentration of rapamycin (20 nM) were added to the myeloma cell line OPM2.

GSPT1 [4] = biological target: T5, GSPT1 (Homo sapiens, UniProt P15170+Q96SW2); assay: Western blot of GSPT1 protein level in pancreatic cancer cell line KP4; type: cell-based; design: endogenous in cells; host or cells: KP4 pancreatic cancer cell line; settings: 24 hours
GSPT1 [5] = biological target: T5, GSPT1; assay: Western blot of GSPT1 protein level in leukemia cell lines HL60 and MOLT-4; type: cell-based; settings: degrader (10 nM CC90009) co-administered with varying concentrations of rapamycin; HL60, MOLT-4; 12 h
Protocol: as §3
The samples were collected after 12 h, and the protein levels were examined by the same method as in Embodiment 3.

[6] = pomalidomide 25 nM + varying concentrations of everolimus, OPM2, 24 hours

T5 sequence (P15170 whole entry): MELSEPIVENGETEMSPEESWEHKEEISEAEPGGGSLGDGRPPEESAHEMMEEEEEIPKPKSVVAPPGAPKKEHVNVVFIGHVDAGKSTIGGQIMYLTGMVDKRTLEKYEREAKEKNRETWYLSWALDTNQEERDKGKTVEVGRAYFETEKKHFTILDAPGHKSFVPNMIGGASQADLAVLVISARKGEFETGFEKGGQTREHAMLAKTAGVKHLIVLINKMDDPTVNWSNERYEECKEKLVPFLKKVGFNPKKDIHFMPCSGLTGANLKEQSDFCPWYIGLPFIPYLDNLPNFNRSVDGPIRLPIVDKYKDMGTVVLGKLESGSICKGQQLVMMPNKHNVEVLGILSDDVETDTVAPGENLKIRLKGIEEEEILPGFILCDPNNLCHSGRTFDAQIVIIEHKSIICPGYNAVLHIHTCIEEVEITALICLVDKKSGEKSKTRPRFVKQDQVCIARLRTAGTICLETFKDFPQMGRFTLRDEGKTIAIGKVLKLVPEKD
T5 sequence (Q96SW2 whole entry): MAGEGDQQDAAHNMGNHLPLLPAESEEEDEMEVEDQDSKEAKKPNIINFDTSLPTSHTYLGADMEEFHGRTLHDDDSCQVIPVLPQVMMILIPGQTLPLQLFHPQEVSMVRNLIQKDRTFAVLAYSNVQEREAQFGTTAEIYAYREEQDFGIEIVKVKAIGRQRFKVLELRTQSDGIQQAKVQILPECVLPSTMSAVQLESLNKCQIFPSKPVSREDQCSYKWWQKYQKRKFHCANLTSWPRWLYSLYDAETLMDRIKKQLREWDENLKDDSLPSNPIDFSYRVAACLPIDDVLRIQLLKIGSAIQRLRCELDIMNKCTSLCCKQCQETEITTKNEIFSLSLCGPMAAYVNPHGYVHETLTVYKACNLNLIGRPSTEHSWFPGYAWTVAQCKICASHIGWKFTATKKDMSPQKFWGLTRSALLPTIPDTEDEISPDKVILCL
T5 sequence (Q16531 whole entry partner): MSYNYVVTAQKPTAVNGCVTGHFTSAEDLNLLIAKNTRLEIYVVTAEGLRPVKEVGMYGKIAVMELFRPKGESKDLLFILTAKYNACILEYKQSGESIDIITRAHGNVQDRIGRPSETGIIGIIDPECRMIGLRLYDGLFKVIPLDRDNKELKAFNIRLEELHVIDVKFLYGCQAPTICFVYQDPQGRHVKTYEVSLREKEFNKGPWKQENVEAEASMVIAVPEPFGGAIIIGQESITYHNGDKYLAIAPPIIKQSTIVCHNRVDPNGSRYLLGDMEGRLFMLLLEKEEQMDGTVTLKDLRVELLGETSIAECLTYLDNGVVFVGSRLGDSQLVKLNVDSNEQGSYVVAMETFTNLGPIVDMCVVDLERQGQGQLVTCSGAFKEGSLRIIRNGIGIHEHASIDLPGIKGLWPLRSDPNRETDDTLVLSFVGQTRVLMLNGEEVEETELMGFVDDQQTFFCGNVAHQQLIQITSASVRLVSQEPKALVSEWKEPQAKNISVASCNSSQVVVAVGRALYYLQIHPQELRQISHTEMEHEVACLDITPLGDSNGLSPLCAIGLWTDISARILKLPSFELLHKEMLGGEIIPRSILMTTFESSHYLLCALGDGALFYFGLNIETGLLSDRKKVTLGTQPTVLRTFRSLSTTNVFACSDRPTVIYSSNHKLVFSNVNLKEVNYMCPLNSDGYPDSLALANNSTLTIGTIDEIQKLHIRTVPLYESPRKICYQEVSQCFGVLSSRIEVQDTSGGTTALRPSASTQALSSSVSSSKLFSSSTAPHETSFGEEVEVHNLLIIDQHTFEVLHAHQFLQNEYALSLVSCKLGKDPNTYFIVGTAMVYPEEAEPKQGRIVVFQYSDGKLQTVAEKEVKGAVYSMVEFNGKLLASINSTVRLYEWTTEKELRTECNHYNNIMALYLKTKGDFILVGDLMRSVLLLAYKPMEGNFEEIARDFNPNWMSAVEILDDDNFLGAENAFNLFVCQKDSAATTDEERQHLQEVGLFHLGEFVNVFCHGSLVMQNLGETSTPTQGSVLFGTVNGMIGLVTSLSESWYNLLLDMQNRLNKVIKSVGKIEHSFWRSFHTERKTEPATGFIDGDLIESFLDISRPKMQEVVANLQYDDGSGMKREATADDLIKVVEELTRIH
T1 sequence (Q9UKT9 whole entry): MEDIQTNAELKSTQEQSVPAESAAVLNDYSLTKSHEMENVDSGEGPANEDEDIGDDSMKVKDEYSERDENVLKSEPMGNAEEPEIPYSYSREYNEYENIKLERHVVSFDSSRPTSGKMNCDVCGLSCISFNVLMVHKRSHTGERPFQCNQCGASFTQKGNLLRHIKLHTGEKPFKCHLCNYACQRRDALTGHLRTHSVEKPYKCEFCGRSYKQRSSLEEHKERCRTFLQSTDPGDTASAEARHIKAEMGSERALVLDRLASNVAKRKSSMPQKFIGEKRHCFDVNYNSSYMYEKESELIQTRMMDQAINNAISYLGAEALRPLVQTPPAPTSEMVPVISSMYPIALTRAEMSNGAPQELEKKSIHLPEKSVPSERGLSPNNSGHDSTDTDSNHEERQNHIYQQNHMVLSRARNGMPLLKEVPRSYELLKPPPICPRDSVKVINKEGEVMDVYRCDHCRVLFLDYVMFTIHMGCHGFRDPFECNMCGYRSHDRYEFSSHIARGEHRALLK
T1 sequence (Q96SW2 whole entry): as the sequence (Q96SW2 whole entry) above
T1 sequence (Q16531 whole entry partner): as the sequence (Q16531 whole entry partner) above
Sequence of IKZF1 (Q16531 whole entry): as the sequence (Q16531 whole entry partner) above
Sequence of IKZF1 (Q96SW2 whole entry): as the sequence (Q96SW2 whole entry) above
Sequence of IKZF1 (Q13422 whole entry): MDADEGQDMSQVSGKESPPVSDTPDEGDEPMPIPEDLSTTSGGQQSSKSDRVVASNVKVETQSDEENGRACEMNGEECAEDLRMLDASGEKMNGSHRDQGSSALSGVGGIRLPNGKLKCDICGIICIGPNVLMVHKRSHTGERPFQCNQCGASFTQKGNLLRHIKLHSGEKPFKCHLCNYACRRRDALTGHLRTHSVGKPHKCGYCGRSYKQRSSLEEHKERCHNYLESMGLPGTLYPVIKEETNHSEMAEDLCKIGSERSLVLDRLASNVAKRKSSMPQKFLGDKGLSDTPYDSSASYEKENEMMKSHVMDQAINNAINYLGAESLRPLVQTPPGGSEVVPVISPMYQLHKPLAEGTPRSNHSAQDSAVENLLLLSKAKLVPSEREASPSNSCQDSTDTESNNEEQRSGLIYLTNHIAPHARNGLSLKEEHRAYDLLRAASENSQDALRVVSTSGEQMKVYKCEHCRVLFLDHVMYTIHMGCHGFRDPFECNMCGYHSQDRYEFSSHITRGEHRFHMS
T3 sequence (P30291 whole entry): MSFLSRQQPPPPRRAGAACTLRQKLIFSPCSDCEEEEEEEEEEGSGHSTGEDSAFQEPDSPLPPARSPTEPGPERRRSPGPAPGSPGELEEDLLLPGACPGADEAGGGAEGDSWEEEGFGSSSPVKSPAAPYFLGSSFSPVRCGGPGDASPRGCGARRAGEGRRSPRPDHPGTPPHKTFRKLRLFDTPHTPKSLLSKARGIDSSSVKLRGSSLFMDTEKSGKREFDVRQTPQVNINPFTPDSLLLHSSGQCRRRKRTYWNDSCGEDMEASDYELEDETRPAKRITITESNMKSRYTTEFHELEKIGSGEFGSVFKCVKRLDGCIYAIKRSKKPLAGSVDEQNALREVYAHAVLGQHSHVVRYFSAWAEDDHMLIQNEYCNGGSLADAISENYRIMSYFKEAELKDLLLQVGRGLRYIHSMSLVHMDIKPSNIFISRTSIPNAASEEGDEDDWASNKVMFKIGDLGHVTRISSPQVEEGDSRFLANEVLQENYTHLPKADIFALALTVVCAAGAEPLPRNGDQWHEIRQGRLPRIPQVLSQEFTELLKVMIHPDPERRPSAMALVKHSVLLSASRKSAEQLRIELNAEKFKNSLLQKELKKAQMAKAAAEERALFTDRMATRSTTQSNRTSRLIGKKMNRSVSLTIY

SMILES: N#Cc1ccc(N2CCN(Cc3ccc(COc4cccc5c4CN([C@H]4CCC(=O)NC4=O)C5=O)cc3)CC2)c(F)c1 [CC-92480]
- killing effect on myeloma cells, co-administered with rapamycin (OPM2-P5000): stronger killing effect
- degradation of the substrate IKZF3, co-administration with rapamycin (IKZF3 [1]): enhance the degradation

SMILES: O=C1CC[C@H](N2Cc3c(OCc4ccc(CN5CCOCC5)cc4)cccc3C2=O)C(=O)N1 [CC-220]
- cell viability (killing curve) of DEPDC5 knockout cells compared to the control group [2]: exhibit resistance

SMILES: Nc1cccc2c1CN(C1CCC(=O)NC1=O)C2=O (stereo not shown) [lenalidomide]
- cell viability (killing curve) of DEPDC5 knockout cells compared to the control group [2]: exhibit resistance

SMILES: Nc1cccc2c1C(=O)N(C1CCC(=O)NC1=O)C2=O (stereo not shown) [pomalidomide]
- degradation of IKZF1 (IKZF1; 25 nM pomalidomide co-administered with rapamycin, OPM2, RPMI-8226, U266, 24 h): enhances the degradation
- degradation of the substrate IKZF1, combination with everolimus (IKZF1; [6]): stronger degradation effect
- cell viability (killing curve) of DEPDC5 knockout cells compared to the control group [2]: exhibit resistance
- degradation of the substrate IKZF3, co-administration with rapamycin (IKZF3 [1]): enhance the degradation
- killing of myeloma cells, combination with rapamycin vs pomalidomide alone (H929): stronger effect in killing myeloma cells
- killing of myeloma cells, combination with rapamycin vs pomalidomide alone (MM1S): stronger effect in killing myeloma cells
- level of the substrate IKZF3 (IKZF3 [3]; 25 nM pomalidomide co-administered with varying concentrations of rapamycin, OPM2, RPMI-8226, U266, 24 h): significantly reduced
- degradation of the substrate IKZF3, combination with everolimus (IKZF3 [3]; [6]): stronger degradation effect
- killing of myeloma cells, combination with rapamycin vs pomalidomide alone (RPMI-8226): stronger effect in killing myeloma cells
- killing of myeloma cells, combination with rapamycin vs pomalidomide alone (U266): stronger effect in killing myeloma cells
- killing of myeloma cells, combination with rapamycin vs pomalidomide alone (OPM2): stronger effect in killing myeloma cells

- degradation of the substrate RBM39, combination with rapamycin vs alone (RBM39): stronger degradation effect
SMILES: NS(=O)(=O)c1ccc(S(=O)(=O)Nc2cccc3c(Cl)c[nH]c23)cc1 [indisulam]

- degradation of the substrate Wee1, combination with rapamycin vs alone (Wee1): stronger degradation effect
SMILES: C=CCn1c(=O)c2cnc(Nc3ccc(N4CCN(CCCNc5cccc6c5C(=O)N(C5CCC(=O)NC5=O)C6=O)CC4)cc3)nc2n1-c1cccc(C(C)(C)O)n1 (stereo not shown) [ZNL-02-096]

- degradation of the substrate BRD4, combination with rapamycin vs alone (BRD4): stronger degradation effect
SMILES: Cc1ncsc1-c1ccc([C@H](C)NC(=O)[C@@H]2C[C@@H](O)CN2C(=O)[C@@H](NC(=O)COCCCOCCNC(=O)C[C@@H]2N=C(c3ccc(Cl)cc3)c3c(sc(C)c3C)-n3c(C)nnc32)C(C)(C)C)cc1 [ARV-771]

- degradation of the substrate GSPT1, combination with everolimus (GSPT1 [4]; CC-90009 1 μM or CC-885 0.1 μM + everolimus 0.01, 0.1 μM): stronger degradation effect
- degradation of the substrate GSPT1, combination with rapamycin (GSPT1 [4]; CC-90009 1 μM or CC-885 0.1 μM + rapamycin 0.01, 0.1 μM): stronger degradation effect
- level of substrate protein GSPT1 (GSPT1 [5]): significantly reduced
SMILES: Cc1ccc(NC(=O)NCc2ccc3c(c2)CN(C2CCC(=O)NC2=O)C3=O)cc1Cl (stereo not shown) [CC-885]

SMILES: Cc1nc2cccc(N)c2c(=O)n1C1CCC(=O)NC1=O (stereo not shown) [CC-122]
- cell viability (killing curve) of DEPDC5 knockout cells compared to the control group [2]: exhibit resistance

Source: US20260166038A1, “METHOD OF ENHANCING THE EFFICACY OF A TARGETED PROTEIN DEGRADER AND ITS DERIVATIVE THERAPEUTICS” (ShanghaiTech University, priority 2022, published 2026)
